What was measured:
KO mice for TAFA4 [1] = conditions: intradural injection; inflammatory pain agonist or partial lesion of the sciatic nerve; cited from earlier work
KO mice for TAFA4 [2] = conditions: UVC irradiation, intradermal injection post-irradiation; cited from earlier work
[3] = system: pain/hypersensitivity felt locally in the skin; conditions: mice, injection subcutaneously or at the level of the neurons present in the bone marrow; cited from earlier work
TAFA4 = TAFA4 synthesis in normal human fibroblast culture supernatant, dot blot; type: cell-based; conditions: for effect on the synthesis of TAFA4 (modulation of TAFA4 in the NHF supernatant): 72 hours of incubation, versus DMEM medium control set to 100%, valproic acid 0.025% and 0.05%, TGF-β 10 and 100 ng/ml, LPS 1 μg/ml; for doses with statistically significant induction of TAFA4 synthesis: NHF supernatant, 72 hours, Student test p<0.05, two doses tested
Protocol: Normal human fibroblasts (NHFs) have been used in this study (Lonza-Switzerland). The cells are seeded at 10,000 cells in 24-well plates in DMEM+1% Penicillin-streptomycin (P/S). After 72 hours of incubation at 37° C., 5% CO2, the supernatants and protein extracts (obtained from the cell layer) are recovered and stored at −80° C. Before assaying the TAFA4 protein, an evaluation of the toxicity of the compounds tested is performed using the MTT test. Only the concentrations which make it possible to obtain a viability greater than 80% are selected to be quantified by ELISA and dot blot. Dot blotting is an immunoenzymatic detection method for quantifying a protein in a sample after it has been deposited on a nitro-cellulose membrane in a well. Specific equipment (Biorad, France) is used with a nitrocellulose membrane. The device is subjected to a vacuum pressure which will make it possible to create the suctioning of the sample (supernatant or protein extract) and therefore, the binding of proteins to the nitrocellulose membrane. The equipment is placed at a height with respect to the vacuum pump, to respect the principle of gravity. The membrane is previously hydrated with 100 μl of TBS buffer (Tris base+NaCl diluted in water adjusted to pH 7.5) per well. This operation is repeated twice in order to optimise the hydration of the membrane for optimal binding of the proteins contained in the samples. The samples to be analysed (supernatants and protein extracts) and the different solutions of TAFA4 recombinant proteins at different concentrations of the TAFA4 standard range (0.78 to 100 ng/ml) are deposited in the plate (volume 100 μl/well used for the protein extracts and 500 μl/well-used for the supernatants) then the suction flow is activated. […] The presence of the TAFA4 protein on the membrane is conveyed by the formation of a grey to black spot depending on the intensity of the reaction and therefore on the quantity of protein. The membrane is read with the Fusion FX device (Vilber Lourmat) coupled with the VisionCapt software (Vilber Lourmat). The quantification of the TAFA4 protein in the samples tested is done with the VisionCapt software which makes it possible to measure the intensity of the various spots. The quantity of samples is then produced using the standard curve of the TAFA4 standard established with the recombinant protein The data have been collected from independent experiments performed in triplicate. Quantitative analyses are expressed in the form of mean±standard deviation. Statistical significance is determined by a Student test. […] The results are expressed as a percentage of TAFA4 expression by standardising the control to 100% (DMEM medium control). […]

Compound | effect on increased hypersensitivity to pain of TAFA4 KO mice (KO mice for TAFA4 [1]) | effect on 35-day post-irradiation inflammation resolution defect (KO mice for TAFA4 [2]) | duration of the reduction of pain/hypersensitivity post-injection [3] | effect on pain/hypersensitivity felt locally in the skin [3] | effect on the synthesis of TAFA4 (modulation of TAFA4 in the NHF supernatant) (TAFA4) | doses with statistically significant induction of TAFA4 synthesis (TAFA4)
human TAFA4 protein: TAFA Chemokine Like Family Member 4 protein, a neurokine; injected recombinant protein in literature mouse studies | compensates for the condition of TAFA4 KO mice | can be compensated | up to 4 hours | reduces the pain/hypersensitivity felt locally in the skin | – | –
CCCC(CCC)C(=O)O [Valproic acid, reference compound] | – | – | – | – | induce the synthesis of TAFA4 in a dose-dependent manner | 1 out of 2 doses
TGF-β: TGF-β protein, 100-21, PEPROTECH | – | – | – | – | induce the synthesis of TAFA4 in a dose-dependent manner | 2 out of 2 doses
